Measurements: PubChem BioAssay (NCI)
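Five compound concentrations were applied to cells in 96-well plates for 48 hours; endpoints were derived by simple linear interpolation of the resulting dose-response curve. TGI: total growth inhibition.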

Tests used:
Test in all cases: inhibition of tumour cell growth, NCI panel, 48 h
[1] = system: HOP-92 NSCLC
[2] = system: LOX IMVI melanoma
[3] = system: MCF7 breast
[4] = system: A549 NSCLC
[5] = system: HS 578T breast
[6] = system: OVCAR-3 ovarian
[7] = system: M14 melanoma
[8] = system: MOLT-4 leukemia
[9] = system: RXF 393 renal
[10] = system: DU-145 prostate

SMILES | TGI [1] | TGI [2] | TGI [3] | TGI [4] | TGI [5] | TGI [6] | TGI [7] | TGI [8] | TGI [9] | TGI [10]
CCCCCCCCCCCCCCCCNc1nc(=O)n(C2CC(O)C(CO)O2)cc1F (stereo not given) | 25.1 µM | 24.1 µM | 19.9 µM | 18.7 µM | 38.7 µM | 39.3 µM | 27.2 µM | 37.7 µM | 28.4 µM | 21.6 µM
CC(C)(C)OC(=O)N1C(OP(=O)(Oc2ccccc2)Oc2ccccc2)=COc2cccnc21 | 92.5 µM | 85.3 µM | > 100 µM | > 100 µM | > 100 µM | > 100 µM | > 100 µM | 43.3 µM | > 100 µM | > 100 µM
O=C(Nc1cccc(-c2cn3ccccc3n2)c1)c1ccncc1 | > 100 µM | > 100 µM | > 100 µM | > 100 µM | > 100 µM | > 100 µM | > 100 µM | 52.6 µM | > 100 µM | > 100 µM
Cc1[nH]c(-c2ccccc2)c(-c2ccc(Cl)cc2)c1C(=O)ONC(=O)c1ccccc1 | 4.01 µM | 2.87 µM | 28 µM | 10.4 µM | 5.72 µM | 14.9 µM | 19.9 µM | 6.97 µM | 6.69 µM | 3.76 µM
NC(=O)CC(Nc1ncc2c(n1)-c1ccccc1OC2)C(=O)O (stereo not given) | > 100 µM | > 100 µM | > 100 µM | > 100 µM | > 100 µM | > 100 µM | > 100 µM | > 100 µM | > 100 µM | > 100 µM
CCOC(=O)C(Cc1ccccc1)(Cc1ccc(O)cn1)NC(=O)c1ccccc1 (stereo not given) | 59.1 µM | 45.2 µM | 51.5 µM | > 100 µM | 63.6 µM | 47.8 µM | 40.5 µM | > 100 µM | > 100 µM | > 100 µM
C/C=C/[C@H]1O[C@@](OC)([C@@H](C)[C@H](O)[C@H](C)[C@H]2OC(=O)/C(OC)=C/C(C)=C/[C@@H](C)[C@@H](O)[C@@H](C)[C@@H](O)[C@H](C)C/C(C)=C/C=C/[C@@H]2OC)CC(OC2CC(O)C(OC(N)=O)C(C)O2)[C@@H]1C (stereo not given in full) | 11 µM | < 0.01 µM | 16 µM | 14.8 µM | 17.9 µM | 10.1 µM | < 0.0124 µM | < 0.01 µM | 15.7 µM | 18.8 µM
O=c1[nH]nc(Cc2ccc(Cl)cc2)n1O | > 100 µM | > 100 µM | > 100 µM | > 100 µM | > 100 µM | > 100 µM | > 100 µM | > 100 µM | > 100 µM | > 100 µM
CCOP(=O)(OCC)C(Nc1ccc(F)cc1)c1cccc([N+](=O)[O-])c1 (stereo not given) | > 100 µM | > 100 µM | > 100 µM | > 100 µM | > 100 µM | > 100 µM | > 100 µM | > 100 µM | > 100 µM | > 100 µM
CC1(C)C2CC(c3ccncc3)ON2C(C)(C)N1O (stereo not given) | > 100 µM | > 100 µM | > 100 µM | > 100 µM | > 100 µM | > 100 µM | > 100 µM | > 100 µM | > 100 µM | > 100 µM
COc1cc2ccnc3c2c(c1O)N(C)C=C3 | > 100 µM | > 50.6 µM | > 91.6 µM | 50.3 µM | 53.1 µM | 17.8 µM | 37 µM | > 100 µM | 30 µM | > 62 µM
CCCCSc1n/c(=C\c2ccc(N(C)C)cc2)c2nnnn12 | > 100 µM | > 100 µM | > 100 µM | > 100 µM | > 100 µM | > 100 µM | > 100 µM | > 100 µM | > 100 µM | > 100 µM
COC(=O)C(COC(=O)/C=C/c1ccc(OC(C)=O)c(OC(C)=O)c1)OC(=O)/C=C/c1ccc(OC(C)=O)c(OC(C)=O)c1 (stereo not given) | 47.6 µM | 23.4 µM | 21.8 µM | 41.6 µM | > 100 µM | 29.9 µM | 20.6 µM | 7.2 µM | 25.8 µM | 24.7 µM
CCOC(=O)c1c(N2CCOCC2)[nH]c(=O)c(C(c2ccc(OC)cc2)c2c(O)c(C(=O)OCC)c(N3CCOCC3)[nH]c2=O)c1O | > 100 µM | > 100 µM | > 100 µM | > 100 µM | > 100 µM | > 100 µM | > 100 µM | > 100 µM | > 100 µM | > 100 µM
CSC(=NC1=NC(C(F)(F)F)(C(F)(F)F)N=C(c2ccccc2)O1)SC | 49.2 µM | 42.8 µM | 60.5 µM | > 100 µM | 72.5 µM | 63.9 µM | 54.6 µM | 85.3 µM | 24.5 µM | 45 µM
